Common to all, as to assay type: physicochemical
A short description of data set [1]: Solid heat stability test (heating in DSC, then XRPD). Here is the method: Experimental Example 2: Solid Heat Stability Test
In a differential scanning calorimeter, samples of Crystalline Form I of Compound A monohydrate were heated at a rate of 10° C./min to 150° C. and 210° C., respectively, and then analyzed by X-ray powder diffraction.

Data set [2] is described as follows: Solid hygroscopicity test. The following applies: 25° C.±1° C., 80%±2% relative humidity, 24 hours. As for the experimental part: Experimental Example 3: Solid Hygroscopicity Test
100 mg of Crystalline Form II of Compound A anhydrate and 100 mg of Crystalline Form I of Compound A monohydrate were precisely weighed. The two samples were placed at 25° C.±1° C. and 80%±2% relative humidity for 24 hours. The weight of the samples was then measured and the percentage weight increase was calculated.

Data set [3] is described as follows: Solid stability test (XRPD after storage). As for the experimental part:
Experimental Example 1: Solid Stability Test
Two samples of Crystalline Form II of Compound A anhydrate were placed in environments of 40° C./75% RH and 60° C./90% RH for 7 days.

Each structure is given as a SMILES string.

In the case of `Cn1c(C(=O)C2CC(F)(F)C2)cc2ccc(-c3nccc(Nc4ccc(-c5cn[nH]c5)cc4)n3)cc21` [Crystalline Form I of Compound A monohydrate], the “crystalline form by XRPD after heat treatment” value in data set [1] (heated at 10° C./min to 150° C.) is “remained unchanged”; in data set [1] (heated at 10° C./min to 210° C.), “converted to crystalline form II of Compound A anhydrous”. Moreover, in data set [2], the “weight increase percentage (hygroscopicity)” value amounted to 3.62%.

As to `Cn1c(C(=O)C2CC(F)(F)C2)cc2ccc(-c3nccc(Nc4ccc(-c5cn[nH]c5)cc4)n3)cc21` [Crystalline Form II of Compound A anhydrate], in data set [2], the “weight increase percentage (hygroscopicity)” value was found to be 0.69%. The “change in the crystalline form by XRPD analysis” value in data set [3] (40° C./75% RH for 7 days) and in data set [3] (60° C./90% RH for 7 days) was “no change in the crystalline form” throughout.

The values are drawn from patent US20240376086A1, “SOLID FORM OF RHO-ASSOCIATED PROTEIN KINASE INHIBITOR OR SOLVATE THEREOF, PREPARATION METHOD AND USE THEREOF” (BEIJING TIDE PHARMACEUTICAL CO., LTD., priority 2021, published 2024).
